Patent US11028072B2, “2,4-diamino-6-ethylpyrimidine derivatives with antimalarial activities against Plasmodium falciparum” (National Science and Technology Development Agency, priority 2015, dated 2021)
Where a name gives a salt, the structure may show the parent alone. Read-outs that look alike come from different tables or passages of the source.

Experiments:
wild type (WT) pfDHFR = wild type (WT) pfDHFR (Plasmodium falciparum, UniProt P13922, N108S/R59C); assay: Inhibition of wild type pfDHFR (Ki); format: biochemical
Description: (§1) The synthesized 2,4-diamino-6-ethylpyrimdine derivatives as the hydrochloride salts were tested for the activities against Plasmodium falciparum (P. falciparum) according to the standard methods. These include the inhibition of dihydrofolate reductase (DHFR) enzymes of P. falciparum including, wild type (WT) and quadruple mutants (N51IC59RS108NI164L) (QM). The inhibition was expressed as inhibition constants (Ki) in nano molar (nM).

[1] = target: quadruple mutant N51I + C59R + S108N + I164L (QM) pfDHFR (Plasmodium falciparum, UniProt P13922, I164L/N51I); assay: Inhibition of quadruple mutant pfDHFR (Ki); format: biochemical
Description: as §1

[2] = target: T1, Human dihydrofolate reductase (hDHFR) (Homo sapiens, UniProt P00374); assay: Inhibition of human dihydrofolate reductase (Ki); format: biochemical; settings: human DHFR; hydrochloride salts
T1 sequence (P00374 1-187): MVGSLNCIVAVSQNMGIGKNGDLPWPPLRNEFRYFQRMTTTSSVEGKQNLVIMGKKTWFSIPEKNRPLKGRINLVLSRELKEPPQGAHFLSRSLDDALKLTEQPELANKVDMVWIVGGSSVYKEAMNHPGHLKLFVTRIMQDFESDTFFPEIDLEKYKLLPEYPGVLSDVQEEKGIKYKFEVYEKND

[3] = test system: P. falciparum TM4/8.2 (wild type); assay: microbe, parasite or virus in culture; format: cell-based, Plasmodium falciparum; settings: Plasmodium falciparum, read-out: IC50 P. falciparum TM4/8.2 (WT)
From the text: (§2) In Vitro Antimalarial Activites Against P. falciparum and Cytotoxicity Towards Mammalian Cells (Vero Cells)

[4] = test system: P. falciparum V1/S (N51I + C59R + S108 + I164L); assay: microbe, parasite or virus in culture; format: cell-based, Plasmodium falciparum; settings: Plasmodium falciparum, read-out: IC50 P. falciparum V1/S
From the text: as §2

in vitro = settings: African green monkey
From the text: as §2

[5] = in vitro, wild-type strain TM4/8.2
[6] = in vitro, quadruple mutant strain V1/S

wild type (WT) pfDHFR, sequence (P13922 whole entry R59C/N108S): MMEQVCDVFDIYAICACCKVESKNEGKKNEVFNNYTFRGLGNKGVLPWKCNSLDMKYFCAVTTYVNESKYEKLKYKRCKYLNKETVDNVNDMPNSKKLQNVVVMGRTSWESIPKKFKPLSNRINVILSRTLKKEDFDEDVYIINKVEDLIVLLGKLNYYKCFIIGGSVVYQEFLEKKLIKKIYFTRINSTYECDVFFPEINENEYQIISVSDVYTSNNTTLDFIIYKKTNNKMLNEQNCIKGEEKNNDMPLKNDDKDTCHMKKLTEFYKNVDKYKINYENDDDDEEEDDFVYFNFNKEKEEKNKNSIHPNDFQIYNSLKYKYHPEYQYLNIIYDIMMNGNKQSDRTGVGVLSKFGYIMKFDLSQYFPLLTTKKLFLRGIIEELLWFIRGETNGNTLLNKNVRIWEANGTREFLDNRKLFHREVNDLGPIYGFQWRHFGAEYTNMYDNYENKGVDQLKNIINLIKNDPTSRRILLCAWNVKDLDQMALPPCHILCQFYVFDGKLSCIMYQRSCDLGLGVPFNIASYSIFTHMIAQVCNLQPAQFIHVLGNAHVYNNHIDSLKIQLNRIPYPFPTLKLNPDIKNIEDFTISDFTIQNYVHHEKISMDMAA
quadruple mutant N51I + C59R + S108N + I164L (QM) pfDHFR, sequence (P13922 whole entry N51I/I164L): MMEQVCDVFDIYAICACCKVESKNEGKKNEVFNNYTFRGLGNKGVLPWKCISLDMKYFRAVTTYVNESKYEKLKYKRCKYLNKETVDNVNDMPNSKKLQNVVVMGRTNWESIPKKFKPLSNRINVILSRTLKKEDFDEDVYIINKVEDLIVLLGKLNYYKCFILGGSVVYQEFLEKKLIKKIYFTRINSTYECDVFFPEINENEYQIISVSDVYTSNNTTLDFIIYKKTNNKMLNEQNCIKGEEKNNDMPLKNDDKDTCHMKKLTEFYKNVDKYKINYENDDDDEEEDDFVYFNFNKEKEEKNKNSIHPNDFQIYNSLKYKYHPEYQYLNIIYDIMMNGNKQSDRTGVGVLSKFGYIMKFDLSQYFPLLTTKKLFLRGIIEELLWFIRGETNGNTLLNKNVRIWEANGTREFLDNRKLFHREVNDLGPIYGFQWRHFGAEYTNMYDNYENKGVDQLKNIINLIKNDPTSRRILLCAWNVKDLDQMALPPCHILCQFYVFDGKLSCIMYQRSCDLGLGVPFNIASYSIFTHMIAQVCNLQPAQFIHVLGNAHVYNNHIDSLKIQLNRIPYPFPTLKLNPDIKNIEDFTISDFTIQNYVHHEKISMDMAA

SMILES: CCc1nc(N)nc(N)c1OCCc1coc(-c2ccc(C(=O)O)cc2)n1 [Compound 59]
- Ki (wild type (WT) pfDHFR): 0.26 ± 0.01 nM
- Ki [1]: 1.56 ± 0.07 nM
- Ki [2]: 17.4 ± 1.14 nM
- IC50 [3, 5]: 52 ± 10 nM
- IC50 [4, 6]: > 10000 nM
- IC50 (in vitro): > 10000 nM

SMILES: CCc1nc(N)nc(N)c1OCc1csc(-c2ccccc2)n1 [Compound 60]
- Ki (wild type (WT) pfDHFR): 1.02 ± 0.14 nM
- Ki [1]: 38.8 ± 5.58 nM
- Ki [2]: 276 ± 16.7 nM
- IC50 [3, 5]: 1200 ± 380 nM
- IC50 [4, 6]: 20800 ± 1860 nM
- IC50 (in vitro): > 50000 nM

SMILES: CCc1nc(N)nc(N)c1OCc1cc(-c2ccc(Br)cc2)no1 [Compound 36]
- Ki (wild type (WT) pfDHFR): 1.03 ± 0.2 nM
- Ki [1]: 64.6 ± 1.16 nM
- Ki [2]: 1350 ± 104 nM
- IC50 [3, 5]: 2860 ± 560 nM
- IC50 [4, 6]: 17500 ± 2960 nM
- IC50 (in vitro): > 25000 nM

SMILES: CCc1nc(N)nc(N)c1OCc1coc(-c2ccc(Cl)cc2)n1 [Compound 55]
- Ki (wild type (WT) pfDHFR): 1.14 ± 0.17 nM
- Ki [1]: 32.9 ± 4.13 nM
- Ki [2]: > 100000 nM
- IC50 [3, 5]: 870 ± 110 nM
- IC50 [4, 6]: > 25000 nM
- IC50 (in vitro): > 25000 nM

SMILES: CCc1nc(N)nc(N)c1OCc1csc(-c2ccc(OCC(=O)O)cc2)n1 [Compound 73]
- Ki (wild type (WT) pfDHFR): 0.65 ± 0.14 nM
- Ki [1]: 28.9 ± 2.56 nM
- Ki [2]: 357 ± 34.4 nM
- IC50 [3, 5]: 41 ± 6 nM
- IC50 [4, 6]: > 50000 nM
- IC50 (in vitro): > 50000 nM

SMILES: CCc1nc(N)nc(N)c1-c1cn(Cc2ccc(OC(=O)N(c3ccccc3)c3ccccc3)cc2)nn1 [Compound 6]
- Ki (wild type (WT) pfDHFR): 10.3 ± 1.69 nM
- Ki [1]: 17.5 ± 2.19 nM
- Ki hDHFR [2]: High
- IC50 [3, 5]: 5590 ± 1540 nM
- IC50 [4, 6]: 4310 ± 930 nM
- IC50 (in vitro): > 25000 nM

SMILES: CCc1nc(N)nc(N)c1OCc1csc(-c2cccc(C)c2)n1 [Compound 61]
- Ki (wild type (WT) pfDHFR): 0.34 ± 0.05 nM
- Ki [1]: 37.7 ± 3.04 nM
- Ki [2]: 131.5 ± 0.88 nM
- IC50 [3, 5]: 840 ± 100 nM
- IC50 [4, 6]: 18000 ± 7770 nM
- IC50 (in vitro): 31300 ± 7750 nM

SMILES: CCc1nc(N)nc(N)c1OCc1coc(-c2ccccc2)n1 [Compound 50]
- Ki (wild type (WT) pfDHFR): 1.33 ± 0.07 nM
- Ki [1]: 55.6 ± 8.79 nM
- Ki [2]: 292 ± 22.2 nM
- IC50 [3, 5]: 2250 ± 710 nM
- IC50 [4, 6]: 13700 ± 4080 nM
- IC50 (in vitro): > 50000 nM

SMILES: CCc1nc(N)nc(N)c1-c1cn(Cc2ccccc2)nn1 [Compound 3]
- Ki (wild type (WT) pfDHFR): 11.3 ± 0.81 nM
- Ki [1]: 13.9 ± 1.98 nM
- Ki [2]: 3140 ± 242 nM
- IC50 [3]: 3570 ± 1250 nM
- IC50 [4]: 19900 ± 7030 nM
- IC50 (in vitro): > 50000 nM

SMILES: CCc1nc(N)nc(N)c1OCc1csc(-c2ccc(C(=O)O)cc2)n1 [Compound 75]
- Ki (wild type (WT) pfDHFR): 0.69 ± 0.12 nM
- Ki [1]: 39.2 ± 3.82 nM
- Ki [2]: 301 ± 24.4 nM
- IC50 [3, 5]: 2650 ± 430 nM
- IC50 [4, 6]: > 50000 nM
- IC50 (in vitro): > 50000 nM

SMILES: CCc1nc(N)nc(N)c1-c1cn(CCCc2ccccc2)nn1 [Compound 8]
- Ki (wild type (WT) pfDHFR): 2.82 ± 0.1 nM
- Ki [1]: 49.8 ± 1.89 nM
- Ki [2]: 3680 ± 480 nM
- IC50 [3]: 5580 ± 670 nM
- IC50 [4]: 32300 ± 3060 nM
- IC50 (in vitro): > 50000 nM

SMILES: CCc1nc(N)nc(N)c1OCc1cc(-c2cccc([N+](=O)[O-])c2)no1 [Compound 39]
- Ki (wild type (WT) pfDHFR): 1.33 ± 0.17 nM
- Ki [1]: 49 ± 6.73 nM
- Ki [2]: > 100000 nM
- IC50 [3, 5]: 1160 ± 550 nM
- IC50 [4, 6]: 9080 ± 1050 nM
- IC50 (in vitro): > 50000 nM

SMILES: CCc1nc(N)nc(N)c1OCc1cn(Cc2ccc(C(=O)O)cc2)nn1 [Compound 29]
- Ki (wild type (WT) pfDHFR): 14.5 ± 1.62 nM
- Ki [1]: 477 ± 32.3 nM
- Ki hDHFR [2]: High
- IC50 [3, 5]: > 25000 nM
- IC50 [4, 6]: > 25000 nM
- IC50 (in vitro): > 25000 nM

SMILES: CCc1nc(N)nc(N)c1OCc1cc(-c2cccc(C(F)(F)F)c2)no1 [Compound 37]
- Ki (wild type (WT) pfDHFR): 2.12 ± 0.18 nM
- Ki [1]: 106 ± 17.3 nM
- Ki [2]: > 100000 nM
- IC50 [3, 5]: 3260 ± 810 nM
- IC50 [4, 6]: 20200 ± 1370 nM
- IC50 (in vitro): 37100 ± 1810 nM

SMILES: CCc1nc(N)nc(N)c1OCCCc1cc(-c2cccc(C(F)(F)F)c2)no1 [Compound 46]
- Ki (wild type (WT) pfDHFR): 0.39 ± 0.03 nM
- Ki [1]: 1.74 ± 0.14 nM
- Ki [2]: 26.12 ± 0.24 nM
- IC50 [3]: 130 ± 40 nM
- IC50 [4]: 17700 ± 4740 nM
- IC50 (in vitro): 10500 nM

SMILES: CCc1nc(N)nc(N)c1OCc1cc(-c2cccc(C(=O)O)c2)no1 [Compound 40]
- Ki (wild type (WT) pfDHFR): 1.28 ± 0.13 nM
- Ki [1]: 2.12 ± 0.17 nM
- Ki [2]: 279 ± 24.7 nM
- IC50 [3, 5]: 280 ± 130 nM
- IC50 [4, 6]: 3380 ± 1060 nM
- IC50 (in vitro): > 50000 nM

SMILES: CCc1nc(N)nc(N)c1OCCc1coc(-c2ccccc2)n1 (as salt: hydrochloride) [Compound 58]
- melting point: 254.5 to 255.5 °C

SMILES: CCc1nc(N)nc(N)c1OCCc1csc(-c2ccccc2)n1 (as salt: hydrochloride) [Compound 76]
- melting point: 215 to 217 °C

SMILES: CCc1nc(N)nc(N)c1OCCc1cn(-c2cccc(C(=O)O)c2)nn1 (as salt: hydrochloride) [Compound 20]
- melting point: 246 to 247 °C

SMILES: CCc1nc(N)nc(N)c1OCc1csc(-c2ccc(F)cc2)n1 (as salt: hydrochloride) [Compound 69]
- melting point: 226 to 227 °C

SMILES: CCc1nc(N)nc(N)c1OCc1csc(-c2ccc(Cl)cc2)n1 (as salt: hydrochloride) [Compound 70]
- melting point: 230 to 232 °C

SMILES: CCc1nc(N)nc(N)c1OCCc1cn(Cc2ccc(O)cc2)nn1 (as salt: hydrochloride) [Compound 30]
- melting point: 213 to 215 °C

SMILES: CCc1nc(N)nc(N)c1OCc1cc(-c2cccc(C(=O)O)c2)no1 (as salt: hydrochloride) [Compound 40]
- melting point: 192 to 194 °C

SMILES: CCc1nc(N)nc(N)c1OCc1cc(-c2cccc([N+](=O)[O-])c2)no1 (as salt: hydrochloride) [Compound 39]
- melting point: 179.5 to 181.5 °C

SMILES: CCc1nc(N)nc(N)c1OCc1csc(-c2ccc(OC)cc2)n1 (as salt: hydrochloride) [Compound 68]
- melting point: 228 to 229 °C

SMILES: CCc1nc(N)nc(N)c1OCc1csc(-c2cccc(C(=O)OC)c2)n1 (as salt: hydrochloride) [Compound 65]
- melting point: 224.5 to 226.5 °C

SMILES: CCc1nc(N)nc(N)c1OCCCc1cn(-c2ccc(C(=O)O)cc2)nn1 (as salt: hydrochloride) [Compound 25]
- melting point: 239.5 to 241.5 °C

SMILES: CCc1nc(N)nc(N)c1-c1cn(CCOc2ccc(Cl)cc2)nn1 (as salt: hydrochloride) [Compound 9]
- melting point: 173.5 to 175 °C

SMILES: CCc1nc(N)nc(N)c1OCc1cc(-c2ccc(C(F)(F)F)cc2)no1 [Compound 41]
- Ki (wild type (WT) pfDHFR): 4.29 ± 0.31 nM
- Ki [2]: > 100000 nM
- IC50 [3, 5]: 6780 ± 2210 nM
- IC50 [4, 6]: > 10000 nM
- IC50 (in vitro): > 10000 nM

SMILES: CCc1nc(N)nc(N)c1OCc1csc(-c2ccc(C)cc2)n1 (as salt: hydrochloride) [Compound 67]
- melting point: 235 to 236 °C

SMILES: CCc1nc(N)nc(N)c1OCc1coc(-c2ccc(OCC(=O)OCc3ccccc3)cc2)n1 (as salt: hydrochloride) (hydrate or solvate) [Compound 56]
- melting point: 191.5 to 192.5 °C

SMILES: CCc1nc(N)nc(N)c1OCc1coc(-c2cccc([N+](=O)[O-])c2)n1 (as salt: hydrochloride) [Compound 52]
- melting point: 221.5 to 222.5 °C

SMILES: CCc1nc(N)nc(N)c1OCc1cn(-c2cccc([N+](=O)[O-])c2)nn1 (as salt: hydrochloride) [Compound 14]
- melting point: 236 to 237 °C

SMILES: CCc1nc(N)nc(N)c1OCc1cc(-c2cccc(OC)c2)no1 (as salt: hydrochloride) [Compound 38]
- melting point: 211.5 to 212.5 °C

SMILES: CCc1nc(N)nc(N)c1OCc1cc(-c2ccc(F)cc2)no1 (as salt: hydrochloride) [Compound 34]
- melting point: 231 to 232 °C

SMILES: CCc1nc(N)nc(N)c1OCc1cc(-c2ccccc2)no1 (as salt: hydrochloride) [Compound 33]
- melting point: 221.5 to 222.5 °C
